The values below come from patent US8937041B2, “Macrocyclic hepatitis C serine protease inhibitors” (AbbVie, Inc., priority 2010, dated 2015).

Data set [1] deals with recombinant HCV NS3 protease, genotype 1b (Hepatitis C virus genotype 1b, UniProt Q9WMX2). Nature of the data set: biochemical. As to conditions: genotype 1b NS3 protease; read-out: IC50 in a 1b enzyme assay.
The target of data set [2] is recombinant HCV NS3 protease, genotype 1a (Hepatitis C virus genotype 1a, UniProt P27958). Nature of the data set: biochemical. As to conditions: genotype 1a NS3 protease; read-out: IC50 in a 1a enzyme assay.
A short description of data set [3]: HLM stability. In kind it is in vitro ADME.
Data set [4] concerns HCV genotype 1b replicon (1b-Con-1). The data set can be described thus: microbe, parasite or virus in culture. As to conditions: Hepatitis C virus, read-out: EC50 in a replicon cell line assay in a 1b-con1 background. In kind it is cell-based. In general terms: Replicon systems follow genome replication, usually without infectious particles.
For data set [5], the system named is HCV genotype 1a replicon (1a-H77). Nature of the data set: microbe, parasite or virus in culture. The note with it: Hepatitis C virus, read-out: EC50 in a replicon cell line assay in a 1a-H77 background. In kind it is cell-based.

As usually defined, the IC50 is the point on the concentration scale where inhibition reaches its midpoint. As usually defined, the EC50 is the concentration that produces a half-maximal response.

Molecules are shown by their SMILES.

recombinant HCV NS3 protease, genotype 1a, sequence (P27958 1027-1657, other chains not shown): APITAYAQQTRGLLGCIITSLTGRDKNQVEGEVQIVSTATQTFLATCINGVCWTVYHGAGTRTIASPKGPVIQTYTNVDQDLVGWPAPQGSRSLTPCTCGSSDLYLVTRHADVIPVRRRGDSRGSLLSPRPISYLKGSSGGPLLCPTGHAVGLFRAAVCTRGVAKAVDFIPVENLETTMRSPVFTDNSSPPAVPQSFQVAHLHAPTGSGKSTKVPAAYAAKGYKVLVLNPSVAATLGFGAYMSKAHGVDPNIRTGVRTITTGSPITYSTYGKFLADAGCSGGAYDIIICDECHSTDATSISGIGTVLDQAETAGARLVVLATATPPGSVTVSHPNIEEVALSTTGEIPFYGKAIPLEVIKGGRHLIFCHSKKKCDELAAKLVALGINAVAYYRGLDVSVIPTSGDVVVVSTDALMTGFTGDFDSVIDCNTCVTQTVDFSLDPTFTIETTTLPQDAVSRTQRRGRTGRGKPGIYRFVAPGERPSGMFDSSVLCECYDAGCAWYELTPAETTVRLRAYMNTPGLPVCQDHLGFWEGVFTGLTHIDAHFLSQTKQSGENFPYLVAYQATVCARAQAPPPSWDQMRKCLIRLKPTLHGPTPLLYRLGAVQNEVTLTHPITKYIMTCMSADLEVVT
recombinant HCV NS3 protease, genotype 1b, sequence (Q9WMX2 1027-1657, other chains not shown): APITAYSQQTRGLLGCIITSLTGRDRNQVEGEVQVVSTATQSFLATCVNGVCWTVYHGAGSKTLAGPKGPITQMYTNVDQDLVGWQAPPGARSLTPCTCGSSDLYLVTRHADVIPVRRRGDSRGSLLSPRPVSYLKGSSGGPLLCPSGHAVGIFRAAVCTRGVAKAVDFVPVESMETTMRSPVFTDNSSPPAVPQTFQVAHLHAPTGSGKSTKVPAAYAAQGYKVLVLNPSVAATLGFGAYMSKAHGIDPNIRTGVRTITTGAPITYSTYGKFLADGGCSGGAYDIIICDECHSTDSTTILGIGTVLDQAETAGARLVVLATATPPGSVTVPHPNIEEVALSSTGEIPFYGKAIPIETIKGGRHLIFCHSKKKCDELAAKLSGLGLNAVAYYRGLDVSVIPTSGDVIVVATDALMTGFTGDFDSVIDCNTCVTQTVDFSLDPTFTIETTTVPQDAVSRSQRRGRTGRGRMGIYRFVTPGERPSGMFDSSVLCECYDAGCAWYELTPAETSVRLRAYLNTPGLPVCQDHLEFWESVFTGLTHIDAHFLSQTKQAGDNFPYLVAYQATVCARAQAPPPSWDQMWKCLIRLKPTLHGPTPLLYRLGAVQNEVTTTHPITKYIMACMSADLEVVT

With `CC(C)(C)OC(=O)N[C@H]1CCCCCC(F)(F)C[C@@H]2C[C@@]2(C(=O)NS(=O)(=O)C2CC2)NC(=O)[C@@H]2C[C@@H](Oc3cnc4ccccc4n3)CN2C1=O` [Example 1, tert-butyl(2R,6S,13aS,14aR,16aS)-14a-(cyclopropylsulfonylcarbamoyl)-12,12-difluoro-5,16-dioxo-2-(quinoxalin-2-yloxy)octadecahydrocyclopropa[e]pyrrolo[1,2-a][1,4]diazacyclopentadecin-6-ylcarbamate], the IC50 in data set [1] and in data set [2] was greater than 1 nM throughout. The compound further yielded an HLM stability value in data set [3] of 50 to 100 µL/min/mg.

Regarding `Cc1cc(C(=O)N[C@H]2CCCCCC(F)(F)C[C@@H]3C[C@@]3(C(=O)NS(=O)(=O)C3CC3)NC(=O)[C@@H]3C[C@@H](Oc4cnc5ccccc5n4)CN3C2=O)no1` [Example 2, N-((2R,6S,13aS,14aR,16aS)-14a-(cyclopropylsulfonylcarbamoyl)-12,12-difluoro-5,16-dioxo-2-(quinoxalin-2-yloxy)octadecahydrocyclopropa[e]pyrrolo[1,2-a][1,4]diazacyclopentadecin-6-yl)-5-methylisoxazole-3-carboxamide], the HLM stability value in data set [3] was less than 50 µL/min/mg.

As to `Cc1nc2ccccc2nc1O[C@@H]1C[C@H]2C(=O)N[C@]3(C(=O)NS(=O)(=O)C4CC4)C[C@H]3CC(F)(F)CCCCC[C@H](NC(=O)OC(C)(C)C)C(=O)N2C1` [Example 3, tert-butyl (2R,6S,13aS,14aR,16aS)-14a-(cyclopropylsulfonylcarbamoyl)-12,12-difluoro-2-(3-methylquinoxalin-2-yloxy)-5,16-dioxooctadecahydrocyclopropa[e]pyrrolo[1,2-a][1,4]diazacyclopentadecin-6-ylcarbamate], the concentration for half-maximal inhibition (IC50) in data set [1] and in data set [2] was 0.1 to 0.5 nM each time.

On to `Cc1cc(C(=O)N[C@H]2CCCCCC(F)(F)C[C@@H]3C[C@@]3(C(=O)NS(=O)(=O)C3CC3)NC(=O)[C@@H]3C[C@@H](Oc4nc5ccccc5nc4C)CN3C2=O)no1` [Example 4, N-((2R,6S,13aS,14aR,16aS)-14a-(cyclopropylsulfonylcarbamoyl)-12,12-difluoro-2-(3-methylquinoxalin-2-yloxy)-5,16-dioxooctadecahydrocyclopropa[e]pyrrolo[1,2-a][1,4]diazacyclopentadecin-6-yl)-5-methylisoxazole-3-carboxamide], for which the HLM stability value in data set [3] was less than 50 µL/min/mg.

Take `CC(C)(C)OC(=O)N[C@H]1CCCCCC(F)(F)C[C@@H]2C[C@@]2(C(=O)NS(=O)(=O)C2CC2)NC(=O)[C@@H]2C[C@@H](Oc3nc4ccccc4nc3-c3ccccc3)CN2C1=O` [Example 5, tert-butyl (2R,6S ,13aS,14aR,16aS)-14a-(cyclopropylsulfonylcarbamoyl)-12,12-difluoro-5,16-dioxo-2-(3-phenylquinoxalin-2-yloxy)octadecahydrocyclopropa[e]pyrrolo[1,2-a][1,4]diazacyclopentadecin-6-ylcarbamate]: the half-maximal inhibitory concentration (IC50) in data set [1] and in data set [2] was 0.5 to 1 nM throughout.

On to `Cc1cc(C(=O)N[C@H]2CCCCCC(F)(F)C[C@@H]3C[C@@]3(C(=O)NS(=O)(=O)C3CC3)NC(=O)[C@@H]3C[C@@H](Oc4nc5ccccc5nc4-c4ccccc4)CN3C2=O)no1` [Example 6, N-((2R,6S,13aS,14aR,16aS)-14a-(cyclopropylsulfonylcarbamoyl)-12,12-difluoro-5,16-dioxo-2-(3-phenylquinoxalin-2-yloxy)octadecahydrocyclopropa[e]pyrrolo[1,2-a][1,4]diazacyclopentadecin-6-yl)-5-methylisoxazole-3-carboxamide], for which, in data set [3], the HLM stability value is less than 50 µL/min/mg.

As for `CCc1nc2ccccc2nc1O[C@@H]1C[C@H]2C(=O)N[C@]3(C(=O)NS(=O)(=O)C4CC4)C[C@H]3CC(F)(F)CCCCC[C@H](NC(=O)OC(C)(C)C)C(=O)N2C1` [Example 7, tert-butyl (2R,6S,13aS,14aR,16aS)-14a-(cyclopropylsulfonylcarbamoyl)-2-(3-ethylquinoxalin-2-yloxy)-12,12-difluoro-5,16-dioxooctadecahydrocyclopropa[e]pyrrolo [1,2-a][1,4]diazacyclopentadecin-6-ylcarbamate], the concentration for a half-maximal effect (EC50) is 1 to 2 nM in data set [4] and 2 to 5 nM in data set [5]. Further, the concentration for half-maximal inhibition (IC50) in data set [1] is 0.1 to 0.5 nM; in data set [2], 0.5 to 1 nM. The compound also had an HLM stability value in data set [3] greater than 100 µL/min/mg.

As for `CCc1nc2ccccc2nc1O[C@@H]1C[C@H]2C(=O)N[C@]3(C(=O)NS(=O)(=O)C4(C)CC4)C[C@H]3CC(F)(F)CCCCC[C@H](NC(=O)OC(C)(C)C)C(=O)N2C1` [Example 8, tert-butyl (2R,6S ,13aS,14aR,16aS)-2-(3-ethylquinoxalin-2-yloxy)-12,12-difluoro-14a-(1-methylcyclopropylsulfonylcarbamoyl)-5,16-dioxooctadecahydrocyclopropa[e]pyrrolo[1,2-a][1,4]diazacyclopentadecin-6-ylcarbamate], the concentration giving a half-maximal response (EC50) was in the range of 1 to 2 nM in data set [4] and 2 to 5 nM in data set [5]. For the same compound, the IC50 in data set [1] and in data set [2] was 0.1 to 0.5 nM throughout. Moreover, the HLM stability value in data set [3] is greater than 100 µL/min/mg.

`CCc1nc2ccccc2nc1O[C@@H]1C[C@H]2C(=O)N[C@]3(C(=O)NS(=O)(=O)C4CC4)C[C@H]3CC(F)(F)CCCCC[C@H](NC(=O)c3cc(C)on3)C(=O)N2C1` [Example 9, N-((2R,6S ,13aS,14aR,16aS)-14a-(cyclopropylsulfonylcarbamoyl)-2-(3-ethylquinoxalin-2-yloxy)-12,12-difluoro-5,16-dioxooctadecahydrocyclopropa[e]pyrrolo[1,2-a][1,4]diazacyclopentadecin-6-yl)-5-methylisoxazole-3-carboxamide]: the concentration for a half-maximal effect (EC50) in data set [4] was 1 to 2 nM; in data set [5] it was 2 to 5 nM. The half-maximal inhibitory concentration (IC50) in data set [1] was 0.1 to 0.5 nM; in data set [2], 0.5 to 1 nM. This compound yielded an HLM stability value in data set [3] of less than 50 µL/min/mg.

With `CCc1nc2ccccc2nc1O[C@@H]1C[C@H]2C(=O)N[C@]3(C(=O)NS(=O)(=O)C4(C)CC4)C[C@H]3CC(F)(F)CCCCC[C@H](NC(=O)c3cc(C)on3)C(=O)N2C1` [Example 10, N-((2R,6S,13aS,14aR,16aS)-2-(3-ethylquinoxalin-2-yloxy)-12,12-difluoro-14a-(1-methylcyclopropylsulfonylcarbamoyl)-5,16-dioxooctadecahydrocyclopropa[e]pyrrolo [1,2-a][1,4]diazacyclopentadecin-6-yl)-5-methylisoxazole-3-carboxamide], the EC50 in data set [4] is 1 to 2 nM; in data set [5], 2 to 5 nM. Further, the HLM stability value in data set [3] is less than 50 µL/min/mg.

Take `Cc1cc(C(=O)N[C@H]2CCCCCC(F)(F)C[C@@H]3C[C@@]3(C(=O)NS(=O)(=O)C3CC3)NC(=O)[C@@H]3C[C@@H](Oc4nc5ccccc5nc4-c4cc5ccccc5o4)CN3C2=O)no1` [Example 16, N-((2R,6S,13aS,14aR,16aS)-2-(3-(benzofuran-2-yl)quinoxaline-2-yloxy)-14a-(cyclopropylsulfonylcarbamoyl)-12,12-difluoro-5,16-dioxooctadecahydrocyclopropa[e]pyrrolo[1,2-a][1,4]diazacyclopentadecin-6-yl)-5-methylisoxazole-3-carboxamide]: the half-maximal inhibitory concentration (IC50) in data set [1] and in data set [2] was 0.1 to 0.5 nM throughout.

On to `Cn1ccc(C(=O)N[C@H]2CCCCCC(F)(F)C[C@@H]3C[C@@]3(C(=O)NS(=O)(=O)C3CC3)NC(=O)[C@@H]3C[C@@H](Oc4nc5ccccc5nc4-c4cc5ccccc5o4)CN3C2=O)n1` [Example 17, (2R,6S,13aS,14aR,16aS)-2-(3-(benzofuran-2-yl)quinoxaline-2-yloxy)-N-(cyclopropylsulfonyl)-12,12-difluoro-6-(1-methyl-1H-pyrazole-3-carboxamido)-5,16-dioxooctadecahydrocyclopropa[e]pyrrolo [1,2-a][1,4]diazacyclopentadecine-14a-carboxamide], for which the concentration for half-maximal inhibition (IC50) in data set [1] is less than 0.1 nM; in data set [2] it was 0.1 to 0.5 nM. This compound registered an HLM stability value in data set [3] of less than 50 µL/min/mg.

In the case of `Cc1cc(C(=O)N[C@H]2CCCCCC(F)(F)C[C@@H]3C[C@@]3(C(=O)NS(=O)(=O)C3CC3)NC(=O)[C@@H]3C[C@@H](Oc4nc5ccccc5c5ccccc45)CN3C2=O)no1` [Example 18, N-((2R,6S,13aS,14aR,16aS)-14a-(cyclopropylsulfonylcarbamoyl)-12,12-difluoro-5,16-dioxo-2-(phenanthridin-6-yloxy)octadecahydrocyclopropa[e]pyrrolo[1,2-a][1,4]diazacyclopentadecin-6-yl)-5-methylisoxazole-3-carboxamide], the 50% effective concentration (EC50) in data set [4] and in data set [5] was less than 1 nM each time.

For the compound `Cc1cnc(C(=O)N[C@H]2CCCCCC(F)(F)C[C@@H]3C[C@@]3(C(=O)NS(=O)(=O)C3CC3)NC(=O)[C@@H]3C[C@@H](Oc4nc5ccccc5c5ccccc45)CN3C2=O)cn1` [Example 20, (2R,6S,13aS,14aR,16aS)-N-(cyclopropylsulfonyl)-12,12-difluoro-6-(5-methylpyrazine-2-carboxamido)-5,16-dioxo-2-(phenanthridin-6-yloxy)octadecahydrocyclopropa[e]pyrrolo[1,2-a][1,4]diazacyclopentadecine-14a-carboxamide], the HLM stability value in data set [3] is less than 50 µL/min/mg.

For `Cc1cc(C(=O)N[C@H]2CCCCCC(F)(F)C[C@@H]3C[C@@]3(C(=O)NS(=O)(=O)C3CC3)NC(=O)[C@@H]3C[C@@H](Oc4nc5ccccc5c5ccccc45)CN3C2=O)nn1C` [Example 21, (2R,6S,13aS,14aR,16a5)-N-(cyclopropylsulfonyl)-6-(1,5-dimethyl-1H-pyrazole-3-carboxamido)-12,12-difluoro-5,16-dioxo-2-(phenanthridin-6-yloxy)octadecahydrocyclopropa[e]pyrrolo[1,2-a][1,4]diazacyclopentadecine-14a-carboxamide], the HLM stability value in data set [3] was less than 50 µL/min/mg.
